Values after ≈ are worked out from the molar mass of the structure shown.
How the values were obtained:
[1] = target: Hematopoietic prostaglandin D synthase (Homo sapiens, UniProt O60760); test: Inhibition of human H-PGDS expressed in Escherichia coli BL21 DE3 cells assessed as reduction in PGD2 production using PGH2 as substrate by RapidFire High Throughput Mass spectrometry
[2] = target: T1, Hematopoietic prostaglandin D synthase (Rattus norvegicus, UniProt O35543); test: Inhibition of H-PGDS in rat RBL cells assessed as reduction in A23187-induced PGD2 production pretreated for 30 mins followed by A23187 addition for 30 mins by RapidFire Mass spectrometry; type: cell-based
T1 sequence (O35543 whole entry): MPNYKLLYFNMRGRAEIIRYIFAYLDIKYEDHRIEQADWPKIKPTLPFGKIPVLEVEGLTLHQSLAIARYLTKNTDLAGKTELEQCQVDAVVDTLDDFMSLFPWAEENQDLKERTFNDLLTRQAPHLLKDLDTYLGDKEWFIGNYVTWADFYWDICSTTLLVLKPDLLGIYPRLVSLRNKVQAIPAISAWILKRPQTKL

[3] = Dissociation constant, pKa of the compound by UV spectroscopy or potentiometric analysis; type: physicochemical
[4] = Solubility of the compound in FaSSIF at pH 6.5 measured after 4 hrs by HPLC-UV analysis; type: ADME
[5] = target: Albumin (Homo sapiens, UniProt P02768); test: Protein binding in human serum albumin by HPLC analysis; type: ADME, cell-free; conditions: read-out: PB (converted)
Sequence of Albumin (P02768 whole entry): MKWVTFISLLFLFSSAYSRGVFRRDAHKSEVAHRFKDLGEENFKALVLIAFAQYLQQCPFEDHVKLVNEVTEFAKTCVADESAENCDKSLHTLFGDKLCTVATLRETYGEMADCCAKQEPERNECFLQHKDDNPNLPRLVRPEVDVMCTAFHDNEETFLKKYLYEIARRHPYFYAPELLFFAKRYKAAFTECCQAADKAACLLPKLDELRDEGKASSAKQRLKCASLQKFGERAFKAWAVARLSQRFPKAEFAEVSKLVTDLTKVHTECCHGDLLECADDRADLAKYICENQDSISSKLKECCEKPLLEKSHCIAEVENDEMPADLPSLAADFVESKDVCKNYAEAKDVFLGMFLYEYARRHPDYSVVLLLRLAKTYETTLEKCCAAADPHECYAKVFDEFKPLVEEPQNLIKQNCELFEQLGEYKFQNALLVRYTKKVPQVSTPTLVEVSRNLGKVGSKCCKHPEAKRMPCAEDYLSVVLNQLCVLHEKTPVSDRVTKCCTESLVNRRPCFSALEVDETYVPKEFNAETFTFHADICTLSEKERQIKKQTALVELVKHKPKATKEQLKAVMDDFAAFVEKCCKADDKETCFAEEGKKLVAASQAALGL

[6] = Terminal half life in mouse at 1 mg/kg, iv; type: ADME, organism-based; conditions: in vivo
[7] = Clearance in mouse at 1 mg/kg, iv; type: ADME, organism-based; conditions: in vivo
[8] = Volume of distribution at steady state in mouse at 1 mg/kg, iv; type: ADME, organism-based; conditions: in vivo, read-out: Vdss
[9] = Oral bioavailability in mouse at 3 mg/kg; type: ADME, organism-based; conditions: in vivo
[10] = Ratio of drug level in brain to blood in mouse at 1 mg/kg, iv; type: ADME, organism-based; conditions: read-out: BBR
[11] = Half life in mouse S9 fraction pretreated for 5 mins followed by incubation with NADP for 30 secs and measured upto 45 mins by LC-MS/MS analysis; type: ADME, subcellular; conditions: time 3030 sec
[12] = Toxicity in chronic eccentric muscle damage C57BL/6N mouse model assessed as seizure-like activity at >=10 mg/kg, po and measured after 4 days; type: organism-based; conditions: in vivo, 96 h, time 4 day
[13] = Toxicity in chronic eccentric muscle damage C57BL/6N mouse model assessed as adverse effects at <=6 mg/kg, po administered for 60 days; type: organism-based; conditions: in vivo, 1440 h, time 60 day
[14] = Dose normalized AUC in mouse at 3 mg/kg, po; type: ADME, organism-based; design: unit not given here; conditions: in vivo
[15] = Apparent permeability, Papp of the compound at pH 7.4 incubated for 3 hrs by AMP based liquid chromatography; type: ADME; conditions: not told
[16] = Half life in mouse liver microsomes pretreated for 5 mins followed by incubation with NADP for 30 secs and measured upto 45 mins by LC-MS/MS analysis; type: ADME, Microsome; conditions: time 3030 sec

Sequence of Hematopoietic prostaglandin D synthase (Homo sapiens, UniProt O60760) (O60760 whole entry): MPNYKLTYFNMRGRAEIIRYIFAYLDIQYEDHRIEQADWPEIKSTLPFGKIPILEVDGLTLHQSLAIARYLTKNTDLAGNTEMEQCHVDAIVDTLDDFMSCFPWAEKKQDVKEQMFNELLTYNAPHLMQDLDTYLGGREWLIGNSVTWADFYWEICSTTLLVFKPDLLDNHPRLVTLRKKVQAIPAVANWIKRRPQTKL

SMILES | IC50 [1] [nM] | EC50 [2] [nM] | pKa [3] | solubility at 4 h [4] [µg/mL] | fraction unbound [5] | half-life [11] [h] | AUC/dose [14] | Papp at 3 h [15] [×10⁻⁶ cm/s] | other results
CC(C)(O)[C@H]1CC[C@H](NC(=O)c2cnc3cnccc3c2)CC1 | 7700 | 39000 | 2.74 | – | – | – | – | – | –
COc1ccc2cc(C(=O)N[C@H]3CC[C@H](C(C)(C)O)CC3)nnc2c1 | 7900 | > 50000 | < 2 | – | – | – | – | – | –
CC(C)(O)[C@H]1CC[C@H](NC(=O)c2cnc3cc(OC(F)F)ccc3c2)CC1 | – | 160 | 2.43 | 70 (≈ 185 µM) | 0.12 | > 3 | – | – | beta t1/2 ([6]; iv, 1 mg/kg): 3.8 h; clearance [7]: 5.6 mL/min/kg; Vd [8]: 1.7 L/kg; bioavailability [9]: 61%; Kp [10]: 0.59; Activity [12]: Toxic; Activity [13]: Non-Toxic
COc1cnc2cc(C(=O)N[C@H]3CC[C@H](C(C)(C)O)CC3)cnc2c1 | 180 | 740 | < 2 | – | – | – | – | – | –
COc1ccc2c(c1)N=CN(C(=O)N[C@H]1CC[C@H](C(C)(C)O)CC1)C2 | 890 | 4300 | 4.31 | – | – | – | – | – | –
CC(C)(O)[C@H]1CC[C@H](NC(=O)c2cnc3cc(C4CC4)ncc3c2)CC1 | 14 | 94 | – | 27 (≈ 76.4 µM) | 0.16 | > 3 | 1040 | 16.5 | half-life ([6]; read-out: beta t1/2 (converted)): 1.1 h; clearance [7]: 22 mL/min/kg; Vd [8]: 1.6 L/kg; bioavailability [9]: 130%; Kp [10]: 0.17
COc1ncc2cc(C(=O)N[C@H]3CC[C@H](C(C)(C)O)CC3)cnc2n1 | 140 | 2000 | < 2 | – | – | – | – | – | –
COc1ccc2nc(C(=O)N[C@H]3CC[C@H](C(C)(C)O)CC3)cnc2c1 | 490 | 3200 | < 2 | – | – | – | – | – | –
CC(C)(O)[C@H]1CC[C@H](NC(=O)c2cnc3cc(N4CC(F)C4)ncc3c2)CC1 | 12 | 170 | – | 13 (≈ 33.6 µM) | 0.27 | > 3 | 19.3 | – | –
CC(C)(O)[C@H]1CC[C@H](NC(=O)c2cnc3ccccc3c2)CC1 | 1800 | 30000 | 3.02 | – | – | – | – | – | –
CC(C)(O)[C@H]1CC[C@H](NC(=O)c2cnc3cc(N4CCC4)ncc3c2)CC1 | 3.9 | 24 | – | 11 (≈ 29.9 µM) | 0.21 | 2.68 | 41 | 7.8 | –
COc1ccc2cc(C(=O)N[C@H]3CC[C@H](C(C)(C)O)CC3)cnc2n1 | 30 | 150 | 2.58 | 24 (≈ 69.9 µM) | 0.27 | – | 64.9 | – | half-life [16]: > 3 h
COc1cc2ncc(C(=O)N[C@H]3CC[C@H](C(C)(C)O)CC3)cc2cn1 | 45 | 190 | < 2 | 85 (≈ 248 µM) | 0.33 | – | 104 | 6.1 | half-life [16]: > 3 h
O=C(N[C@H]1CCNC1=O)c1cnc2cc(C3CC3)ncc2c1 | 110 | 260 | – | 430 (≈ 1450 µM) | 0.57 | – | 262 | 3 | half-life [16]: 2.45 h
C[C@H]1CCN1c1ccc2cc(C(=O)N[C@H]3CC[C@H](C(C)(C)O)CC3)cnc2n1 | 4.4 | 14 | – | 270 (≈ 706 µM) | 0.22 | > 3 | 73.7 | 2.5 | –
COc1ccc2cc(C(=O)N[C@H]3CC[C@H](C(C)(C)O)CC3)cnc2c1 | – | 100 | 3.59 | – | – | – | – | – | –
CC(N[C@H]1CC[C@H](NC(=O)c2cnc3nc(C4CC4)ccc3c2)CC1)C(F)F (mixture of isomers) | 11 | 28 | – | > 1000 | 0.18 | – | 681 | 17 | half-life [16]: > 3 h
CC(C)(O)[C@H]1CC[C@H](NC(=O)c2cnc3nc(N4CCC4)ccc3c2)CC1 | 5.3 | 75 | – | 3 (≈ 8.14 µM) | 0.2 | > 3 | 72.5 | 2.3 | –
O=C(N[C@H]1CCNC1=O)c1cnc2cc(N3CCC3)ncc2c1 | 12 | 110 | – | 400 (≈ 1280 µM) | 0.41 | > 3 | 250 | < 1 | –
C[C@]1(O)C[C@@H](NC(=O)c2cnc3cc(N4CCC4)ncc3c2)C1 | 56 | 450 | – | 460 (≈ 1470 µM) | 0.48 | > 3 | 46.9 | 3.8 | –
CC(C)(O)C1CC2(CC(NC(=O)c3cnc4nc(C5CC5)ccc4c3)C2)C1 (centres undefined) | 4.9 | – | – | 34 (≈ 93 µM) | 0.14 | – | 441 | 5.4 | EC50 ([2]; rbl): 29 nM; half-life [16]: > 3 h

— ChEMBL document CHEMBL5260850, “The exploration of aza-quinolines as hematopoietic prostaglandin D synthase (H-PGDS) inhibitors with low brain exposure” (Bioorg Med Chem, 2020)
